Read-outs that look alike come from different tables or passages of the source.
How the values were obtained:
Assay in all cases: Glasshouse assay for herbicidal activity (pre- and post-emergence), percentage phytotoxicity
Format in all cases: in vivo
[1] = tested on: Lolium perenne (LOLPE); conditions: Lolium perenne
Outline: (§1)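 Pot-grown, standard soil. PRE: spray 1 d post-sowing; POST: ~12 d. Glasshouse 24/18 °C (warm spp.) / 20/16 °C (cool spp.), 16 h light, 65% RH, watered 2×/day. Visual % damage, 20 DAA PRE, 15 DAA POST.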

[2] = tested on: Alopecurus myosuroides (ALOMY); conditions: Alopecurus myosuroides
Outline: as §1

[3] = tested on: Echinochloa crus-galli (ECHCG); conditions: Echinochloa crus-galli
Outline: as §1

[4] = tested on: Avena fatua (AVEFA); conditions: Avena fatua
Outline: as §1

[5] = post-emergence, 360 h, 250 g/ha, post-emergence, 15 DAA, visual assessment (100%=total damage, 0%=no damage), read-out: Post-emergence herbicidal activity (percentage phytotoxicity) LOLPE POST
[6] = pre-emergence, 480 h, 250 g/ha, pre-emergence, 20 DAA, visual assessment (100%=total damage, 0%=no damage), read-out: Pre-emergence herbicidal activity (percentage phytotoxicity) LOLPE PRE
[7] = post-emergence, 360 h, 250 g/ha, post-emergence, 15 DAA, visual assessment (100%=total damage, 0%=no damage), read-out: Post-emergence herbicidal activity (percentage phytotoxicity) ALOMY POST
[8] = pre-emergence, 480 h, 250 g/ha, pre-emergence, 20 DAA, visual assessment (100%=total damage, 0%=no damage), read-out: Pre-emergence herbicidal activity (percentage phytotoxicity) ALOMY PRE
[9] = post-emergence, 360 h, 250 g/ha, post-emergence, 15 DAA, visual assessment (100%=total damage, 0%=no damage), read-out: Post-emergence herbicidal activity (percentage phytotoxicity) ECHCG POST
[10] = pre-emergence, 480 h, 250 g/ha, pre-emergence, 20 DAA, visual assessment (100%=total damage, 0%=no damage), read-out: Pre-emergence herbicidal activity (percentage phytotoxicity) ECHCG PRE
[11] = post-emergence, 360 h, 250 g/ha, post-emergence, 15 DAA, visual assessment (100%=total damage, 0%=no damage), read-out: Post-emergence herbicidal activity (percentage phytotoxicity) AVEFA POST
[12] = pre-emergence, 480 h, 250 g/ha, pre-emergence, 20 DAA, visual assessment (100%=total damage, 0%=no damage), read-out: Pre-emergence herbicidal activity (percentage phytotoxicity) AVEFA PRE
[13] = post-emergence, 360 h, POST-emergence, rate 250 g/ha, visual score 15 DAA (100%=total damage, 0%=no damage), read-out: Post-emergence herbicidal activity (percentage phytotoxicity) LOLPE POST
[14] = pre-emergence, 480 h, PRE-emergence, rate 250 g/ha, visual score 20 DAA (100%=total damage, 0%=no damage), read-out: Pre-emergence herbicidal activity (percentage phytotoxicity) LOLPE PRE
[15] = post-emergence, 360 h, POST-emergence, rate 250 g/ha, visual score 15 DAA (100%=total damage, 0%=no damage), read-out: Post-emergence herbicidal activity (percentage phytotoxicity) ALOMY POST
[16] = pre-emergence, 480 h, PRE-emergence, rate 250 g/ha, visual score 20 DAA (100%=total damage, 0%=no damage), read-out: Pre-emergence herbicidal activity (percentage phytotoxicity) ALOMY PRE
[17] = post-emergence, 360 h, POST-emergence, rate 250 g/ha, visual score 15 DAA (100%=total damage, 0%=no damage), read-out: Post-emergence herbicidal activity (percentage phytotoxicity) ECHCG POST
[18] = pre-emergence, 480 h, PRE-emergence, rate 250 g/ha, visual score 20 DAA (100%=total damage, 0%=no damage), read-out: Pre-emergence herbicidal activity (percentage phytotoxicity) ECHCG PRE
[19] = post-emergence, 360 h, POST-emergence, rate 250 g/ha, visual score 15 DAA (100%=total damage, 0%=no damage), read-out: Post-emergence herbicidal activity (percentage phytotoxicity) AVEFA POST
[20] = pre-emergence, 480 h, PRE-emergence, rate 250 g/ha, visual score 20 DAA (100%=total damage, 0%=no damage), read-out: Pre-emergence herbicidal activity (percentage phytotoxicity) AVEFA PRE
[21] = post-emergence, 360 h, Rate 250 g/ha, post-emergence, assessed visually 15 DAA, 100%=total damage, 0%=no damage, read-out: Post-emergence herbicidal activity (percentage phytotoxicity) LOLPE POST
[22] = pre-emergence, 480 h, Rate 250 g/ha, pre-emergence, assessed visually 20 DAA, 100%=total damage, 0%=no damage, read-out: Pre-emergence herbicidal activity (percentage phytotoxicity) LOLPE PRE
[23] = post-emergence, 360 h, Rate 250 g/ha, post-emergence, assessed visually 15 DAA, 100%=total damage, 0%=no damage, read-out: Post-emergence herbicidal activity (percentage phytotoxicity) ALOMY POST
[24] = pre-emergence, 480 h, Rate 250 g/ha, pre-emergence, assessed visually 20 DAA, 100%=total damage, 0%=no damage, read-out: Pre-emergence herbicidal activity (percentage phytotoxicity) ALOMY PRE
[25] = post-emergence, 360 h, Rate 250 g/ha, post-emergence, assessed visually 15 DAA, 100%=total damage, 0%=no damage, read-out: Post-emergence herbicidal activity (percentage phytotoxicity) ECHCG POST
[26] = pre-emergence, 480 h, Rate 250 g/ha, pre-emergence, assessed visually 20 DAA, 100%=total damage, 0%=no damage, read-out: Pre-emergence herbicidal activity (percentage phytotoxicity) ECHCG PRE
[27] = post-emergence, 360 h, Rate 250 g/ha, post-emergence, assessed visually 15 DAA, 100%=total damage, 0%=no damage, read-out: Post-emergence herbicidal activity (percentage phytotoxicity) AVEFA POST
[28] = pre-emergence, 480 h, Rate 250 g/ha, pre-emergence, assessed visually 20 DAA, 100%=total damage, 0%=no damage, read-out: Pre-emergence herbicidal activity (percentage phytotoxicity) AVEFA PRE

SMILES	pest or weed control at 250 g/ha [1, 13] [%]	pest or weed control at 250 g/ha [1, 14] [%]	pest or weed control at 250 g/ha [2, 15] [%]	pest or weed control at 250 g/ha [2, 16] [%]	pest or weed control at 250 g/ha [3, 17] [%]	pest or weed control at 250 g/ha [3, 18] [%]	pest or weed control at 250 g/ha [4, 19] [%]	pest or weed control at 250 g/ha [4, 20] [%]	pest or weed control at 250 g/ha [1, 21] [%]	pest or weed control at 250 g/ha [1, 22] [%]	pest or weed control at 250 g/ha [2, 23] [%]	pest or weed control at 250 g/ha [2, 24] [%]	pest or weed control at 250 g/ha [3, 25] [%]	pest or weed control at 250 g/ha [3, 26] [%]	pest or weed control at 250 g/ha [4, 27] [%]	pest or weed control at 250 g/ha [4, 28] [%]	also measured
Cc1cc(-c2ncc(Cl)cc2F)cc(C)c1C1C(=O)CC(CC(N)=O)C1=O (centres unmarked) [Compound B53]	–	–	–	–	–	–	–	–	–	–	–	–	–	–	–	–	pest or weed control at 250 g/ha [1, 5]: 100%; pest or weed control at 250 g/ha [1, 6]: 90%; pest or weed control at 250 g/ha [2, 7]: 90%; pest or weed control at 250 g/ha [2, 8]: 90%; pest or weed control at 250 g/ha [3, 9]: 100%; pest or weed control at 250 g/ha [3, 10]: 90%; pest or weed control at 250 g/ha [4, 11]: 100%; pest or weed control at 250 g/ha [4, 12]: 100%
Cc1cc(-n2cc(Cl)cn2)cc(C)c1C1C(=O)CC(CC(=O)NCc2cccc(F)c2)C1=O (centres unmarked) [Compound B223]	80	80	90	90	100	90	100	70	–	–	–	–	–	–	–	–	–
Cc1cc(-n2cc(Cl)cn2)cc(C)c1C1C(=O)CC(CC(=O)NCC(=O)c2ccccc2)C1=O (centres unmarked) [Compound A137]	–	–	–	–	–	–	–	–	60	70	40	60	90	70	70	60	–
Cc1cc(-c2ncc(F)cn2)cc(C)c1C1C(=O)CC(CC(=O)NCc2ccc(C#N)cc2)C1=O (centres unmarked) [Compound B272]	80	50	100	80	100	90	100	80	–	–	–	–	–	–	–	–	–
Cc1ccsc1CNC(=O)CC1CC(=O)C(c2c(C)cc(-c3ncc(Cl)cc3F)cc2C)C1=O (centres unmarked) [Compound A131]	–	–	–	–	–	–	–	–	100	70	90	40	100	100	100	50	–
C=CCNC(=O)CC1CC(=O)C(c2c(C)cc(Br)cc2C)C1=O (centres unmarked) [Compound B117]	–	–	–	–	–	–	–	–	–	–	–	–	–	–	–	–	pest or weed control at 250 g/ha [1, 5]: 70%; pest or weed control at 250 g/ha [1, 6]: 70%; pest or weed control at 250 g/ha [2, 7]: 80%; pest or weed control at 250 g/ha [2, 8]: 70%; pest or weed control at 250 g/ha [3, 9]: 70%; pest or weed control at 250 g/ha [3, 10]: 70%; pest or weed control at 250 g/ha [4, 11]: 70%; pest or weed control at 250 g/ha [4, 12]: 20%
CC#Cc1cc(C)c(C2C(=O)CC(CC(=O)NCC(C)(C)C)C2=O)c(CC)c1 (centres unmarked) [Compound A53]	–	–	–	–	–	–	–	–	90	90	100	90	100	100	90	80	–
Cc1cc(-c2ccc(Br)cn2)cc(C)c1C1C(=O)CC(CC(=O)NC(C)(C)C)C1=O (centres unmarked) [Compound B322]	100	90	100	90	100	90	100	70	–	–	–	–	–	–	–	–	–
C/C=C/c1cc(C)c(C2C(=O)CC(CC(N)=O)C2=O)c(C)c1 (centres unmarked) [Compound B175]	80	100	90	100	90	100	100	90	–	–	–	–	–	–	–	–	–
C#Cc1cc(C)c(C2C(=O)CC(CC(=O)NC(C)CC)C2=O)c(C)c1 (centres unmarked) [Compound A9, 2-[3-(4-ethynyl-2,6-dimethyl-phenyl)-2,4-dioxo-cyclopentyl]-N-sec-butyl-acetamide]	–	–	–	–	–	–	–	–	80	90	80	90	90	100	100	90	–
C#CCN(C)C(=O)CC1CC(=O)C(c2c(C)cc(-c3ccc(Cl)cn3)cc2C)C1=O (centres unmarked) [Compound B369]	–	–	–	–	–	–	–	–	–	–	–	–	–	–	–	–	pest or weed control at 250 g/ha ([1]; post-emergence, 360 h, Rate 250 g/ha, post-emergence, visual assessment 15 DAA, 100%=total damage, 0%=no damage, read-out: Post-emergence herbicidal activity (percentage phytotoxicity) LOLPE POST): 90%; pest or weed control at 250 g/ha ([1]; pre-emergence, 480 h, Rate 250 g/ha, pre-emergence, visual assessment 20 DAA, 100%=total damage, 0%=no damage, read-out: Pre-emergence herbicidal activity (percentage phytotoxicity) LOLPE PRE): 100%; pest or weed control at 250 g/ha ([2]; post-emergence, 360 h, Rate 250 g/ha, post-emergence, visual assessment 15 DAA, 100%=total damage, 0%=no damage, read-out: Post-emergence herbicidal activity (percentage phytotoxicity) ALOMY POST): 90%; pest or weed control at 250 g/ha ([2]; pre-emergence, 480 h, Rate 250 g/ha, pre-emergence, visual assessment 20 DAA, 100%=total damage, 0%=no damage, read-out: Pre-emergence herbicidal activity (percentage phytotoxicity) ALOMY PRE): 100%; pest or weed control at 250 g/ha ([3]; post-emergence, 360 h, Rate 250 g/ha, post-emergence, visual assessment 15 DAA, 100%=total damage, 0%=no damage, read-out: Post-emergence herbicidal activity (percentage phytotoxicity) ECHCG POST): 100%; pest or weed control at 250 g/ha ([3]; pre-emergence, 480 h, Rate 250 g/ha, pre-emergence, visual assessment 20 DAA, 100%=total damage, 0%=no damage, read-out: Pre-emergence herbicidal activity (percentage phytotoxicity) ECHCG PRE): 100%; pest or weed control at 250 g/ha ([4]; post-emergence, 360 h, Rate 250 g/ha, post-emergence, visual assessment 15 DAA, 100%=total damage, 0%=no damage, read-out: Post-emergence herbicidal activity (percentage phytotoxicity) AVEFA POST): 100%; pest or weed control at 250 g/ha ([4]; pre-emergence, 480 h, Rate 250 g/ha, pre-emergence, visual assessment 20 DAA, 100%=total damage, 0%=no damage, read-out: Pre-emergence herbicidal activity (percentage phytotoxicity) AVEFA PRE): 100%
Cc1cc(C)c(C2C(=O)CC(CC(=O)NC3(C#N)CC3)C2=O)c(C)c1 (centres unmarked) [Compound A82]	–	–	–	–	–	–	–	–	30	–	10	–	30	–	10	–	–
